# According to patent US10106559B2, “Substituted tetrahydrocarbazole and carbazole carboxamide compounds” (BRISTOL-MYERS SQUIBB COMPANY, priority 2013, dated 2018):
# Target: Jak2 tyrosine kinase (Homo sapiens (Human), UniProt O60674)
# Assay: Jak2 Tyrosine Kinase Assay
# Assay type: biochemical
# Conditions: not given
# Sequence of Jak2 tyrosine kinase (O60674 whole entry): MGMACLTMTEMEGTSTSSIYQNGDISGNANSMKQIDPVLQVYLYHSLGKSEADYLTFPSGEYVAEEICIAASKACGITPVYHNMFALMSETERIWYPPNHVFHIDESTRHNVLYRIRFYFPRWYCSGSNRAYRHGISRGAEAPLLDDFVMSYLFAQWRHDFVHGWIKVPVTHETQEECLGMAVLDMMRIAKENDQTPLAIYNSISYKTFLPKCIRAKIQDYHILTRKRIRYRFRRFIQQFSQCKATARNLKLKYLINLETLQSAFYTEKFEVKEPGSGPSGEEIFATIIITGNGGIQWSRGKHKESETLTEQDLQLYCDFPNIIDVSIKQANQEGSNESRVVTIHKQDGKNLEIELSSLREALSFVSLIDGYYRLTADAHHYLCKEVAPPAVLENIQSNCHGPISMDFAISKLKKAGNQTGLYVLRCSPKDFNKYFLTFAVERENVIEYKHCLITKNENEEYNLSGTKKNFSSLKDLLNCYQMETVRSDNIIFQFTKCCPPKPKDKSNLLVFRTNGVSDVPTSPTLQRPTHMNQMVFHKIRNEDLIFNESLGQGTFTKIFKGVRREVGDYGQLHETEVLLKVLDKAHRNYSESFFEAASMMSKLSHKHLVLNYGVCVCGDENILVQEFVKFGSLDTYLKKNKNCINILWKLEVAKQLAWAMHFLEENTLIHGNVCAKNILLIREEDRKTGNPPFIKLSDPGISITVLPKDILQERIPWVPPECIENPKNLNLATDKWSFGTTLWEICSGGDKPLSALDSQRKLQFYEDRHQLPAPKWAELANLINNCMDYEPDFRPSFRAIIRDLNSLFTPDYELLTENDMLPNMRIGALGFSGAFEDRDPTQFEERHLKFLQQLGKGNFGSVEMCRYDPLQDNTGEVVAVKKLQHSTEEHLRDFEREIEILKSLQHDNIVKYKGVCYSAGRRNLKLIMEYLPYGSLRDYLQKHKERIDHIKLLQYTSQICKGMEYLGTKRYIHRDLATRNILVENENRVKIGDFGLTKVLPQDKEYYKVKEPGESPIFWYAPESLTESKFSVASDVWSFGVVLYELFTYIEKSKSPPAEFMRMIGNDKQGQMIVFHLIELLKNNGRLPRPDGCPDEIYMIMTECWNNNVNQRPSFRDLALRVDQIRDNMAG
row,Structure (SMILES),IC50
1,"Cc1c(-c2c(F)cc(C(N)=O)c3[nH]c4cc(C(C)(C)O)ccc4c23)cccc1-n1c(=O)[nH]c2c(F)cc(F)cc2c1=O (single isomer, unassigned) [Example 73]",580 nM

# Same assay, conditions: Jak2 IC50 over Btk IC50; larger value = more selective for Btk
row,Structure (SMILES),Ratio of Jak2/Btk IC50 values
1,"Cc1nc(C(N)=O)c2[nH]c3cc(C(C)(C)O)ccc3c2c1-c1cccc(-n2cnc3ccccc3c2=O)c1C [Comparative Example 76, 7-(2-Hydroxypropan-2-yl)-3-methyl-4-(2-methyl-3-(4-oxoquinazolin-3(4H)-yl)phenyl)-9H-pyrido[3,4-b]indole-1-carboxamide, reference compound]",29

# Same assay, conditions: selectivity: Jak2 IC50 divided by Btk IC50
row,Structure (SMILES),Ratio of Jak2/Btk IC50 values
1,"Cc1c(-c2c(F)cc(C(N)=O)c3[nH]c4c(c23)CC[C@H](C(C)(C)O)C4)cccc1-n1c(=O)c2cccc(F)c2n(C)c1=O (atropisomer, axis not shown) [Example 28, 6-Fluoro-5-(R)-(3-(S)-(8-fluoro-1-methyl-2,4-dioxo-1,2-dihydroquinazolin-3(4H)-yl)-2-methylphenyl)-2-(S)-(2-hydroxypropan-2-yl)-2,3,4,9-tetrahydro-1H-carbazole-8-carboxamide]",59000
2,"COc1ccc2c(=O)n(-c3cccc(-c4c(Cl)cc(C(N)=O)c5[nH]c6cc(C(C)(C)O)ccc6c45)c3C)c(=O)n(C)c2c1 (single isomer, unassigned) [Example 5]",>950
3,"COc1ccc2c(=O)n(-c3cccc(-c4c(Cl)cc(C(N)=O)c5[nH]c6cc(C(C)(C)O)ccc6c45)c3C)c(=O)n(C)c2c1 (single isomer, unassigned) [Example 6]",1400
4,"Cc1c(-c2c(Cl)cc(C(N)=O)c3[nH]c4c(c23)CC[C@H](C(C)(C)O)C4)cccc1-n1c(=O)[nH]c2c(F)cc(F)cc2c1=O (single isomer, unassigned) [Example 57]",1100
5,"[2H]C([2H])([2H])n1c(=O)n(-c2cccc(-c3c(F)cc(C(N)=O)c4[nH]c5c(c34)CC[C@H](C(C)(C)O)C5)c2C)c(=O)c2cccc(F)c21 (single isomer, unassigned) [Example 62]",>4900
6,"Cc1c(-c2c(F)cc(C(N)=O)c3[nH]c4c(c23)CC[C@H](C(C)(C)O)C4)cccc1-n1c(=O)[nH]c2c(Cl)cccc2c1=O (single isomer, unassigned) [Example 63]",24000
7,"Cc1c(-c2c(F)cc(C(N)=O)c3[nH]c4c(c23)CC[C@H](C(C)(C)O)C4)cccc1-n1c(=O)cc2c(F)cccn2c1=O (single isomer, unassigned) [Example 69]",11000
8,"Cc1nc(C(N)=O)c2[nH]c3cc(C(C)(C)O)ccc3c2c1-c1cccc(-n2cnc3ccccc3c2=O)c1C [Comparative Example 76, 7-(2-Hydroxypropan-2-yl)-3-methyl-4-(2-methyl-3-(4-oxoquinazolin-3(4H)-yl)phenyl)-9H-pyrido[3,4-b]indole-1-carboxamide, reference compound]",29
9,"Cc1c(-c2c(C#N)cc(C(N)=O)c3[nH]c4cc(C(C)(C)O)ccc4c23)cccc1-n1c(=O)c2cccc(F)c2n(C)c1=O [Example 15, 3-Cyano-4-(S)-(3-(8-fluoro-1-methyl-2,4-dioxo-1,2-dihydroquinazolin-3(4H)-yl)-2-methylphenyl)-7-(2-hydroxypropan-2-yl)-9H-carbazole-1-carboxamide]",2400
10,"Cc1c(-c2c(Cl)cc(C(N)=O)c3[nH]c4cc(C(C)(C)O)ccc4c23)cccc1-n1c(=O)cc2c(F)cccn2c1=O [Example 34, 3-Chloro-4-(3-(5-fluoro-1,3-dioxo-1H-pyrido[1,2-c]pyrimidin-2(3H)-yl)-2-methylphenyl)-7-(2-hydroxypropan-2-yl)-9H-carbazole-1-carboxamide]",440
11,"Cc1c(-c2c(Cl)cc(C(N)=O)c3[nH]c4cc(C(C)(C)O)ccc4c23)cccc1-n1c(=O)cc2c(F)cccn2c1=O [Example 35, 3-Chloro-4-(R)-(3-(5-fluoro-1,3-dioxo-1H-pyrido[1,2-c]pyrimidin-2(3H)-yl)-2-methylphenyl)-7-(2-hydroxypropan-2-yl)-9H-carbazole-1-carboxamide]",3200
12,"Cc1c(-c2c(Cl)cc(C(N)=O)c3[nH]c4cc(C(C)(C)O)ccc4c23)cccc1-n1c(=O)cc2c(F)cccn2c1=O [Example 36, 3-Chloro-4-(R)-(3-(5-fluoro-1,3-dioxo-1H-pyrido[1,2-c]pyrimidin-2(3H)-yl)-2-methylphenyl)-7-(2-hydroxypropan-2-yl)-9H-carbazole-1-carboxamide]",1600
13,"Cc1c(-c2c(Cl)cc(C(N)=O)c3[nH]c4cc(C(C)(C)O)ccc4c23)cccc1-n1c(=O)cc2sccn2c1=O [Example 38, 3-Chloro-4-(R)-(3-(5,7-dioxo-5H-thiazolo[3,2-c]pyrimidin-6(7H)-yl)-2-methylphenyl)-7-(2-hydroxypropan-2-yl)-9H-carbazole-1-carboxamide]",880
14,"Cc1c(-c2c(Cl)cc(C(N)=O)c3[nH]c4cc(C(C)(C)O)ccc4c23)cccc1-n1c(=O)cc2sccn2c1=O [Example 39, 3-Chloro-4-(R)-(3-(5,7-dioxo-5H-thiazolo[3,2-c]pyrimidin-6(7H)-yl)-2-methylphenyl)-7-(2-hydroxypropan-2-yl)-9H-carbazole-1-carboxamide]",1200
15,"Cc1c(-c2c(F)cc(C(N)=O)c3[nH]c4cc(C(C)(C)O)ccc4c23)cccc1-n1c(=O)cc2c(F)cccn2c1=O [Example 40, 3-Fluoro-4-(R)-(3-(5-fluoro-1,3-dioxo-1H-pyrido[1,2-c]pyrimidin-2(3H)-yl)-2-methylphenyl)-7-(2-hydroxypropan-2-yl)-9H-carbazole-1-carboxamide]",1800
16,"Cc1c(-c2c(F)cc(C(N)=O)c3[nH]c4cc(C(C)(C)O)ccc4c23)cccc1-n1c(=O)cc2c(F)cccn2c1=O [Example 41, 3-Fluoro-4-(R)-(3-(5-fluoro-1,3-dioxo-1H-pyrido[1,2-c]pyrimidin-2(3H)-yl)-2-methylphenyl)-7-(2-hydroxypropan-2-yl)-9H-carbazole-1-carboxamide]",4000

# Test system: CD69 expression on B cells in human whole blood
# Assay: Whole Blood Assay of BCR-Stimulated CD69 Expression on B Cells
# Assay type: cell-based
# Conditions: B-cell
row,Structure (SMILES),IC50
1,"Cc1c(-c2c(Cl)cc(C(N)=O)c3[nH]c4cc(C(C)(C)O)ccc4c23)cccc1-n1c(=O)[nH]c2c(F)cc(F)cc2c1=O (racemic) [Example 10, 3-Chloro-4-(RS)-(3-(RS)-(6,8-difluoro-2,4-dioxo-1,2-dihydroquinazolin-3(4H)-yl)-2-methylphenyl)-7-(2-hydroxypropan-2-yl)-9H-carbazole-1-carboxamide]",110 nM
2,"[2H]C([2H])([2H])n1c(=O)n(-c2cccc(-c3c(F)cc(C(N)=O)c4[nH]c5cc(C(C)(C)O)ccc5c34)c2C)c(=O)c2cccc(F)c21 (single isomer, unassigned) [Example 52]",25 nM
3,"Cc1c(-c2c(Cl)cc(C(N)=O)c3[nH]c4c(c23)CC[C@H](C(C)(C)O)C4)cccc1-n1c(=O)[nH]c2c(F)cc(F)cc2c1=O (single isomer, unassigned) [Example 57]",54 nM
4,"Cc1c(-c2c(F)cc(C(N)=O)c3[nH]c4c(c23)CC[C@H](C(C)(C)O)C4)cccc1-n1c(=O)[nH]c2c(F)cccc2c1=O (single isomer, unassigned) [Example 59]",260 nM
5,"[2H]C([2H])([2H])n1c(=O)n(-c2cccc(-c3c(F)cc(C(N)=O)c4[nH]c5c(c34)CC[C@H](C(C)(C)O)C5)c2C)c(=O)c2cccc(F)c21 (single isomer, unassigned) [Example 62]",74 nM
6,"Cc1c(-c2c(F)cc(C(N)=O)c3[nH]c4c(c23)CC[C@H](C(C)(C)O)C4)cccc1-n1c(=O)[nH]c2c(Cl)cccc2c1=O (single isomer, unassigned) [Example 63]",190 nM
7,"Cc1c(-c2c(F)cc(C(N)=O)c3[nH]c4c(c23)CC[C@H](C(C)(C)O)C4)cccc1-n1c(=O)cc2c(Cl)cccn2c1=O (single isomer, unassigned) [Example 64]",88 nM
8,"Cc1c(-c2c(Cl)cc(C(N)=O)c3[nH]c4cc(C(C)(C)O)ccc4c23)cccc1-n1c(=O)c2ccccc2n(C)c1=O [Example 3, 3-Chloro-7-(2-hydroxypropan-2-yl)-4-(R)-(2-methyl-3-(1-methyl-2,4-dioxo-1,2-dihydroquinazolin-3(4H)-yl)phenyl)-9H-carbazole-1-carboxamide]",130 nM
9,"Cc1c(-c2c(Cl)cc(C(N)=O)c3[nH]c4cc(C(C)(C)O)ccc4c23)cccc1-n1c(=O)c2cccc(C)c2n(C)c1=O [Example 4, 3-Chloro-4-(R)-(3-(1,8-dimethyl-2,4-dioxo-1,2-dihydroquinazolin-3(4H)-yl)-2-methylphenyl)-7-(2-hydroxypropan-2-yl)-9H-carbazole-1-carboxamide]",180 nM
10,"COc1cccc2c(=O)n(-c3cccc(-c4c(Cl)cc(C(N)=O)c5[nH]c6cc(C(C)(C)O)ccc6c45)c3C)c(=O)n(C)c12 [Example 7, 3-Chloro-7-(2-hydroxypropan-2-yl)-4-(R)-(3-(8-methoxy-1-methyl-2,4-dioxo-1,2-dihydroquinazolin-3(4H)-yl)-2-methylphenyl)-9H-carbazole-1-carboxamide]",130 nM
11,"Cc1c(-c2c(Cl)cc(C(N)=O)c3[nH]c4cc(C(C)(C)O)ccc4c23)cccc1-n1c(=O)c2cc(F)ccc2n(C)c1=O [Example 8, 3-Chloro-4-(R)-(3-(6-fluoro-1-methyl-2,4-dioxo-1,2-dihydroquinazolin-3(4H)-yl)-2-methylphenyl)-7-(2-hydroxypropan-2-yl)-9H-carbazole-1-carboxamide]",75 nM
12,"Cc1c(-c2c(Cl)cc(C(N)=O)c3[nH]c4cc(C(C)(C)O)ccc4c23)cccc1-n1c(=O)c2ccc(F)cc2n(C)c1=O [Example 9, 3-Chloro-4-(R)-(3-(7-fluoro-1-methyl-2,4-dioxo-1,2-dihydroquinazolin-3(4H)-yl)-2-methylphenyl)-7-(2-hydroxypropan-2-yl)-9H-carbazole-1-carboxamide]",76 nM
13,"Cc1c(-c2c(Cl)cc(C(N)=O)c3[nH]c4c(c23)CC[C@H](C(C)(C)O)C4)cccc1-n1c(=O)c2cccc(F)c2n(C)c1=O [Example 25, 6-Chloro-5-(3-(8-fluoro-1-methyl-2,4-dioxo-1,2-dihydroquinazolin-3(4H)-yl)-2-methylphenyl)-2-(S)-(2-hydroxypropan-2-yl)-2,3,4,9-tetrahydro-1H-carbazole-8-carboxamide]",200 nM
14,"Cn1c(=O)n(-c2cccc(-c3c(F)cc(C(N)=O)c4[nH]c5cc(C(C)(C)O)ccc5c34)c2Cl)c(=O)c2cccc(F)c21 [Example 46, 4-(2-Chloro-3-(8-fluoro-1-methyl-2,4-dioxo-1,2-dihydroquinazolin-3(4H)-yl)phenyl)-3-fluoro-7-(2-hydroxypropan-2-yl)-9H-carbazole-1-carboxamide]",88 nM
15,"CC(C)(O)c1ccc2c(c1)[nH]c1c(C(N)=O)cc(Cl)c(-c3cccc(-n4c(=O)[nH]c5c(F)cccc5c4=O)c3Cl)c12 [Example 47, 3-Chloro-4-(R)-(2-chloro-3-(8-fluoro-2,4-dioxo-1,2-dihydroquinazolin-3(4H)-yl)phenyl)-7-(2-hydroxypropan-2-yl)-9H-carbazole-1-carboxamide]",27 nM
